{
  "source": "ChEMBL document CHEMBL1138255",
  "about": "“Enantioselective synthesis and vanilloid activity evaluation of 1-beta-(p-methoxycinnamoyl)polygodial, an antinociceptive compound from Drymis winteri barks” (Bioorg Med Chem Lett, 2007)",
  "key": {"[1]": {"target": "Transient receptor potential cation channel subfamily V member 1 (Homo sapiens) (UniProt Q8NER1)", "sequence (Q8NER1 whole entry)": "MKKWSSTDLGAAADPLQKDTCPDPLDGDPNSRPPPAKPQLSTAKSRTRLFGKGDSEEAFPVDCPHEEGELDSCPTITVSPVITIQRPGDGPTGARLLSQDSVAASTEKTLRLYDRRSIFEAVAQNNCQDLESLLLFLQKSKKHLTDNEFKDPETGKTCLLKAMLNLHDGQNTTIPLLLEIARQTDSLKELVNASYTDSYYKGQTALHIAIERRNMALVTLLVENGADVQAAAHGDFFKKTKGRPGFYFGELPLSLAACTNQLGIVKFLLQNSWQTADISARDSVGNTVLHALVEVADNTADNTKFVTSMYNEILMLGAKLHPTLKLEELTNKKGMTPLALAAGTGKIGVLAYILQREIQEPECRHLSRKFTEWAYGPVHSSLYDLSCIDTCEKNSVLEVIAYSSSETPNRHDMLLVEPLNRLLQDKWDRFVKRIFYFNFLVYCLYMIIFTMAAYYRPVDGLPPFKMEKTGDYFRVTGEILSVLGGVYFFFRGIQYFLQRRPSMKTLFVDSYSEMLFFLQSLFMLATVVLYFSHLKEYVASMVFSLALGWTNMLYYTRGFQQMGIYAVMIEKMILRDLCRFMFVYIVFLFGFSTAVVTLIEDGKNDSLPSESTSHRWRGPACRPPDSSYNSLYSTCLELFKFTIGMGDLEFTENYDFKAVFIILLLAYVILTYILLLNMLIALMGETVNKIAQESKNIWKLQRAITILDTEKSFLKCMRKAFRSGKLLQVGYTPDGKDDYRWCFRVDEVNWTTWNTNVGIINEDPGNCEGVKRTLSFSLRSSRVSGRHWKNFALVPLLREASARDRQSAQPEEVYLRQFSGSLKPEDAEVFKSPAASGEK", "assay": "Activity at human TRPV1 receptor expressed in HEK293 cells assessed as calcium influx relative to ionomycin", "assay_type": "cell-based"}, "[2]": {"target": "Transient receptor potential cation channel subfamily V member 1 (Homo sapiens) (UniProt Q8NER1)", "assay": "Activity at human TRPV1 receptor expressed in HEK293 cells assessed as calcium influx in presence of 5-iodo-resiniferatoxin", "assay_type": "cell-based"}},
  "data": [
    {"smiles": "CC1(C)CC[C@@H](O)[C@@]2(C)C1CC=C(C=O)[C@@H]2C=O", "note": "(some centres undefined)", "values": [
      {"measurement": "Activity", "setting": "[1]", "value": 0, "unit": "%"}
    ]},
    {"smiles": "COc1ccc(/C=C/C(=O)O[C@@H]2CCC(C)(C)C3CC=C(C=O)[C@H](C=O)[C@]32C)cc1", "note": "(some centres undefined)", "values": [
      {"measurement": "Activity", "setting": "[1]", "value": 40.4, "unit": "%"},
      {"measurement": "Activity", "setting": "[2]", "value": 22, "unit": "%"}
    ]},
    {"smiles": "COc1ccc(/C=C/C(=O)O[C@@H]2CCC(C)(C)C3CC=C(CO)[C@H](CO)[C@]32C)cc1", "note": "(some centres undefined)", "values": [
      {"measurement": "Activity", "setting": "[1]", "value": 0, "unit": "%"}
    ]}
  ]
}
